Measured values: US5011828A, “Immunostimulating guanine derivatives, compositions and methods” (priority 1988, dated 1991)

Columns and labels:
[1] = system: murine lymphocytes (sheep red blood cells as antigen); test: Antigen-specific adjuvanticity: direct anti-SRBC plaque forming cells, murine system; format: cell-based, mouse; settings: for Average 1 Log Plaque Values: Table 9, murine, * = single study
Source text: ^1 Adjuvanticities against sheep red blood cells [SRBC] measured in
direct plaqueforming cells per culture of lymphocytes from the mouse
strains shown. Details of the procedure are provided in the Materials and
Methods Section. Standard errors from the enumerated mean values are show
A large number of comparisons of adjuvanticity using human and murine lymphocytes as the source of leukocytes have been carried out using compounds of the present invention, as well as with new compounds excluded from the present invention. […] Interstudy comparisons are however useful for showing trends and large differences. Tables 5, 6 and 7, hereinafter, provide exemplary data from such studies in which only the activity at the peak concentration is shown for each compound and the results for the controls are omitted.
Lymphocyte cultures. The serum-containing culture medium water prepared to contain the following per 100 milliliters: 91.9 milliliters RPMI 1640 (Flow Laboratories, Inc., Rockville, Md.), 0.1 milliliters of 100×glutamine, 1.0 milliliter of 100×sodium pyruvate, 1 0 milliliter of 50×nonessential amino acids, 1.0 milliliter of water containing 10^4 units of penicillin G and 10^4 micrograms of streptomycin, and 5.0 milliliters of a supportive lot of fetal calf serum (FCS). These ingredients were admixed to apparent homogeneity. Spleen cell suspensions and populations enriched for splenic B cells were prepared as described in Goodman et al., J. Immunol., 121:1905 (1978).
For evaluation of the primary humoral immune response to sheep erythrocytes (SRBC), 5×10^6 to 10^7 murine spleen cells were cultured in 1.0 milliliter of 5% FCS-containing medium for 4 or 5 days in the presence and absence of immunogen. Cells were incubated in culture trays (Costar, Cambridge, Mass.) at 37° C. in a humidified atmosphere of 10% CO2 in air using tissue culture boxes (CBS Scientific, Del Mar, Calif.) that were rocked at a frequency of 7 cycles per minute. Pooled SRBC are available from the Colorado Serum Co., Denver Colo.
(§1) Assay of plaque forming cells (PFC). PFC secreting antibodies against SRBC were evaluated after 4 or 5 days of culture using a modification of the hemolytic plaque assay of Jerne and Nordin, Science, 140:405 (1963). The cells were brought up in complete medium before plaquing; they were plaqued in standard low Mr agarose (Bio-Rad Laboratories, Richmond Calif.), and were incubated in SRBC-absorbed guinea pig complement for one hour after a 1.5 hour incubation without complement.

[2] = system: murine spleen cells; test: Mitogenicity: [3H]TdR uptake, murine system; format: cell-based, mouse; settings: Table 2
[3] = system: human peripheral blood lymphocytes (sheep red blood cells as antigen); test: Antigen-specific adjuvanticity: direct anti-SRBC plaque forming cells, human system; format: cell-based
Experimental: ^1 Studies were carried in a manner similar to those of Table 1,
except that a human lymphocyte preparation was used.
The results shown in Table 7, below, were obtained similarly to those discussed above, but using human lymphocytes. Some of those studies utilized lymphocytes from more than one individual, and are therefore reported with multiple entries.
Human peripheral blood lymphocytes (PBL) were prepared from normal heparinized venous blood by Ficoll-diatrizoate density gradient centrifugation. PBL were depleted of suppressor T cells bearing the histamine type 2 receptor by adhering them to the surfaces of histamine-rabbit serum albumin-coated plastic petri dishes (Cell-ect No. 2 kit; Seragen, Boston, Mass.) and by recovering the nonadherent cells by panning as described by Wysocki and Sato, Proc. Natl. Acad. Sci. USA, 75:2844 (1978) and modified by Cavagnaro and Osband, Biotechniques, January/February:30 (1983).
The tissue culture medium employed in these studies for human lymphocytes was prepared as follows: One hundred milliliters (ml) contained 87.9 ml RPMI 1640 (Flow Laboratories, Rockville, Md.), 0.1 ml 100×glutamine,1.0 ml of 1.0 M HEPES buffer (Microbilogical Associates, Betheseda, Md.), 1.0 ml of water containing 10^4 U of penicillin G and 10^4 micrograms of streptomycin, and 10 ml of fresh autologous heat-inactivatedplasma. For evaluation of the primary humoral immune response to SRBC, lymphoid cells prepared as above were cultured at a density of 2×10^6 /ml in a volume of 1.0 ml containing 5×10^6 SRBC as antigen (Colorado Serum Co., Denver, Colo.) together with IL-2 (a partially purified preparation of human IL-2 that was free of interferon-gamma activity was obtained from Electro-Nucleonics, Inc., Silver Spring, Md.) and the guanine nucleoside derivative.
as §1

[4] = Table 5, murine system, at peak concentration
[5] = Table 6, murine system, at peak concentration
[6] = Table 7, later studies, single preparation

Nc1nc2c(nc(Br)n2[C@@H]2O[C@H](CO)[C@@H](O)[C@H]2O)c(=O)[nH]1 [8BrGuo, 8-bromoguanosine, reference compound]
Peak Direct anti-SRBC PFC/Culture [1, 4]: 2450 ± 325 PFC/Culture
Peak Direct anti-SRBC PFC/Culture ([1]; Table 6, first study (note 4)): 1167 ± 68 PFC/Culture
Peak Direct anti-SRBC PFC/Culture ([1]; Table 6, second study (note 4)): 633 ± 96 PFC/Culture

C=CCSc1nc2c(=O)[nH]c(N)nc2n1[C@@H]1O[C@H](CO)[C@@H](O)[C@H]1O [compound 22300, 8-(2-propenylmercapto)guanosine]
Direct Anti-SRBC PFC/Culture ([1]; Table 1, CBA/CaJ, 3 × 10^-4 M): 870 ± 70 PFC/Culture
Direct Anti-SRBC PFC/Culture ([1]; Table 1, CBA/CaJ, 10^-3 M): 490 ± 133 PFC/Culture
Direct Anti-SRBC PFC/Culture ([1]; Table 1, CBA/CaJ, 10^-4 M): 420 ± 105 PFC/Culture
adjuvanticity, in words ([1]; murine system): about equal adjuvanticity to that of 8MGuo
[3H] TdR Uptake ([2]; 10^-3 M): 16,400 ± 1130 cpm/culture
[3H] TdR Uptake ([2]; 10^-4 M): 2700 ± 130 cpm/culture

Nc1nc2c(nc(SCC=Cc3ccccc3)n2[C@@H]2O[C@H](CO)[C@@H](O)[C@H]2O)c(=O)[nH]1 [compound 22359, 8-(Cinnamylmercapto)guanosine]
Direct Anti-SRBC PFC/Culture ([1]; Table 1, C57BL/6J, 3 × 10^-4 M): 2620 ± 100 PFC/Culture
Direct Anti-SRBC PFC/Culture ([1]; Table 1, C57BL/6J, 10^-3 M): 3110 ± 350 PFC/Culture
Direct Anti-SRBC PFC/Culture ([1]; Table 1, CBA/CaJ, 3 × 10^-4 M): 157 ± 7 PFC/Culture
Direct Anti-SRBC PFC/Culture ([1]; Table 1, CBA/CaJ, 10^-3 M): 653 ± 52 PFC/Culture
Direct Anti-SRBC PFC/Culture ([1]; Table 1, CBA/CaJ, 10^-4 M): 123 ± 21 PFC/Culture
[3H] TdR Uptake ([2]; 3 × 10^-4 M): 1300 ± 80 cpm/culture
[3H] TdR Uptake ([2]; 10^-3 M): 1700 ± 280 cpm/culture
[3H] TdR Uptake ([2]; 10^-4 M): 1600 ± 90 cpm/culture

C=CCn1c(=S)n([C@@H]2O[C@H](COC(C)=O)[C@@H](OC(C)=O)[C@H]2OC(C)=O)c2nc(N)[nH]c(=O)c21 [compound 22360, 7-(2-Propenyl)-8-thioxo-2',3',5'-triacetylguanosine]
Peak Direct anti-SRBC PFC/Culture [1, 5]: 743 ± 48 PFC/Culture
Direct Anti-SRBC PFC/Culture ([1]; Table 8, 1 × 10^-5 M): 1176 PFC/Culture
Average 1 Log Plaque Values [1]: 53,695 ± 28,444 per micromole
Peak Direct anti-SRBC PFC/Culture ([3]; Table 7, second group, person a): 925 PFC/Culture
Peak Direct anti-SRBC PFC/Culture ([3]; Table 7, second group, person b): 6008 PFC/Culture
Peak Direct anti-SRBC PFC/Culture ([3]; Table 7, second group, person c): 5050 PFC/Culture
Average 1 Log Plaque Values ([3]; Table 9, human, * = single study): 38,508 ± 26,802 per micromole

Nc1nc2c(c(=O)[nH]1)n(CC=Cc1ccccc1)c(=O)n2[C@@H]1O[C@H](CO)[C@@H](O)[C@H]1O [compound 22827, 7-[(3-Phenyl)-2-propenyl]-8-oxoguanosine]
Peak Direct anti-SRBC PFC/Culture [1, 4]: 1357 ± 226 PFC/Culture
adjuvanticity higher / more active than comparison compound of U.S. Pat. No. 4,643,992 ([1]; murine system (Table 5), vs 7m8oGuo or compounds of that patent): more than 100%
Peak Direct anti-SRBC PFC/Culture [3, 6]: 2577 ± 300 PFC/Culture

C=CCn1c(=S)n([C@@H]2O[C@H](CO)[C@H]3OC(C)(C)O[C@H]32)c2nc(N)[nH]c(=O)c21 [compound 23083, 7-(2-Propenyl)-8-thioxo-2',3'-O-isopropylidineguanosine hemihydrate]
Peak Direct anti-SRBC PFC/Culture [1, 5]: 2150 ± 250 PFC/Culture
adjuvanticity, in words ([1]; murine system): activity substantially identical to that of 7a8oGuo, albeit at about one-half log higher concentration

C=CCn1c(=S)n([C@@H]2O[C@H](COC(C)=O)[C@H]3OC(C)(C)O[C@H]32)c2nc(N)[nH]c(=O)c21 [compound 23287, 5'-Acetyl-7-(2-propenyl)-2',3'-O-isopropylidene-8-thioxoguanosine]
Peak Direct anti-SRBC PFC/Culture ([1]; Table 6, first study (note 4)): 1650 ± 63 PFC/Culture
Peak Direct anti-SRBC PFC/Culture ([1]; Table 6, second study (note 4)): 1675 ± 298 PFC/Culture
adjuvanticity, in words ([1]; murine system): about twice that exhibited by 8-bromoguanosine (8BrGuo)

C=CCn1c(=S)n(C2OC(COC(=O)c3ccccc3)C3OC(C)(C)OC32)c2nc(N)nc(OC(=O)c3ccccc3)c21 (stereo not shown) [compound 23314, 7-(2-Propenyl)-6,5'-dibenzoyl-2',3'-O-isopropylidene-8-thioxoguanosine]
Peak Concentration ([1]; Table 6, murine system): 10^-5 moles per liter
Peak Direct anti-SRBC PFC/Culture ([1]; Table 6, study b): 243 ± 19 PFC/Culture

C=CCn1c(=S)n([C@@H]2O[C@H](COC(=O)c3ccccc3)[C@H]3OC(C)(C)O[C@H]32)c2nc(NC(=O)c3ccccc3)[nH]c(=O)c21 [compound 23350, 7-(2-Propenyl)-2-N,5'-O-dibenzoyl-2',3'-O-isopropylidene-8-thioxoguanosine hemihydrate]
Peak Direct anti-SRBC PFC/Culture ([1]; Table 6, study c): 45 ± 8 PFC/Culture
adjuvanticity, in words ([1]; murine system): substantially inactive at the concentrations utilized

C=CCn1c(=S)n(C2OC(COC(=O)c3ccccc3)C3OC(C)(C)OC32)c2nc(N)[nH]c(=O)c21.O (stereo not shown) [compound 23351, 7-(2-Propenyl)-5'-benzoyl-2',3'-O-isopropylideneguanosine-8-thioxoguanosinequarterhydrate]
Peak Concentration ([1]; Table 6, murine system): 10^-4 moles per liter
Peak Direct anti-SRBC PFC/Culture ([1]; Table 6, study a): 1431 ± 134 PFC/Culture
adjuvanticity, in words ([1]; murine system): A similar result was obtained

C=CCn1c(=[Se])n([C@@H]2O[C@H](CO)[C@@H](O)[C@H]2O)c2nc(N)[nH]c(=O)c21 [compound 23369, 7-(2-Propenyl)-8-selenoxoguanosine]
Peak Direct anti-SRBC PFC/Culture [1, 4]: 2425 ± 229 PFC/Culture
Peak Direct anti-SRBC PFC/Culture [3, 6]: 2204 ± 370 PFC/Culture

CC=CCn1c(=O)n([C@@H]2O[C@H](CO)[C@@H](O)[C@H]2O)c2nc(N)[nH]c(=O)c21 [compound 23679, 7-(2-Butenyl)-8-oxoguanosine]
Direct Anti-SRBC PFC/Culture ([1]; Table 8, 1 × 10^-5 M): 612 PFC/Culture
Average 1 Log Plaque Values [1]: 52,332 per micromole
Peak Direct anti-SRBC PFC/Culture [3, 6]: 3129 ± 252 PFC/Culture

CCCCCCCCCCn1c(=O)n([C@@H]2O[C@H](CO)[C@@H](O)[C@H]2O)c2nc(N)[nH]c(=O)c21 [compound 23894, 7-Decyl-8-oxoguanosine]
Peak Direct anti-SRBC PFC/Culture [1, 4]: 90 ± 15 PFC/Culture

CCCCCCn1c(=O)n([C@@H]2O[C@H](CO)[C@@H](O)[C@H]2O)c2nc(N)[nH]c(=O)c21 [compound 23924, 7-Hexyl-8-oxoguanosine]
Direct Anti-SRBC PFC/Culture ([1]; Table 8, 1 × 10^-5 M): 243 PFC/Culture

CCCn1c(=O)n([C@@H]2O[C@H](CO)[C@@H](O)[C@H]2O)c2nc(N)[nH]c(=O)c21 [compound 24069, 7-Propyl-8-oxoguanosine]
Direct Anti-SRBC PFC/Culture ([1]; Table 8, 1 × 10^-5 M): 1306 PFC/Culture

Nc1nc2c(c(=O)[nH]1)n(Cc1ccccc1)c(=O)n2[C@@H]1O[C@H](CO)[C@@H](O)[C@H]1O [compound 24234, 7-Benzyl-8-oxoguanosine]
Peak Direct anti-SRBC PFC/Culture [1, 4]: 2004 PFC/Culture
Average 1 Log Plaque Values [1]: 110,777 ± 42,823 per micromole
